Assay results from ChEMBL document CHEMBL1671753, “Therapeutic drug monitoring of linezolid: a retrospective monocentric analysis” (Antimicrob Agents Chemother, 2010).

Tests used:
[1] = AUC (24 hrs) in patient plasma at 600 mg, iv or 600 mg, po administered every 12 hrs by HPLC; type: ADME, organism-based; settings: human
[2] = AUC (12 hrs) in liver transplant patient plasma at 600 mg, iv or 600 mg, po administered every 12 hrs by HPLC; type: ADME, organism-based; settings: human
[3] = Cmax in patient plasma at 600 mg, iv or 600 mg, po administered every 12 hrs by HPLC; type: ADME, organism-based; settings: human
[4] = Drug excretion in healthy human urine assessed as unchanged compound at 600 mg, po; type: ADME, tissue-based; settings: read-out: Activity
Homo sapiens = experiment: Nonrenal clearance in healthy human at 600 mg, po; type: ADME, organism-based; settings: in vivo

In the case of `CC(=O)NC[C@H]1CN(c2ccc(N3CCOCC3)c(F)c2)C(=O)O1` [LINEZOLID], the AUC [1] is reported as 196 µg·h/mL, the AUC at 12 h [2] is reported as 413 µg·h/mL and the Cmax [3] is reported as 14700 ng/mL. The dose excreted [4] was 30% and the “Dose non renally cleared” value (Homo sapiens) was 65%.
